From patent US6737383B1, “Herbicidal oxadiazolidines” (priority 1999, dated 2004)

Tests used:
bedstraw = assay: Test B pre/postemergence bedstraw; assay type: in vivo, Galium aparine; conditions: Postemergence
Outline: (§1)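 Herbicidal effect was estimated by eye on a ten-point control scale after plants spent twelve to sixteen days in a greenhouse following soil or foliar treatment. Foliar sprays targeted plants at one to four leaves; all doses were formulated in a non-phytotoxic solvent with surfactant.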

blackgrass = assay: Test B pre/postemergence blackgrass; assay type: in vivo, Alopecurus myosuroides; conditions: for Blackgrass plant response rating: scale of 0 to 10 where 0 is no effect and 10 is complete control
Outline: as §1

surinam grass = assay: Test B pre/postemergence surinam grass; assay type: in vivo, Brachiaria decumbens; conditions: for B. signalgrass plant response rating: scale of 0 to 10 where 0 is no effect and 10 is complete control
Outline: as §1

cocklebur = assay: Test B pre/postemergence cocklebur; assay type: in vivo, Xanthium strumarium; conditions: for Cocklebur plant response rating: scale of 0 to 10 where 0 is no effect and 10 is complete control
Outline: as §1

corn = assay: Test B pre/postemergence corn; assay type: in vivo, Zea mays; conditions: for Corn plant response rating: scale of 0 to 10 where 0 is no effect and 10 is complete control
Outline: as §1

crabgrass = assay: Test B pre/postemergence crabgrass; assay type: in vivo, Digitaria sanguinalis; conditions: for Crabgrass plant response rating: scale of 0 to 10 where 0 is no effect and 10 is complete control
Outline: as §1

giant foxtail = assay: Test B pre/postemergence giant foxtail; assay type: in vivo, Setaria faberii; conditions: for Giant foxtail plant response rating: scale of 0 to 10 where 0 is no effect and 10 is complete control
Outline: as §1

morningglory = assay: Test B pre/postemergence morningglory; assay type: in vivo, Ipomoea hederacea; conditions: for Morningglory plant response rating: scale of 0 to 10 where 0 is no effect and 10 is complete control
Outline: as §1

pigweed = assay: Test B pre/postemergence pigweed; assay type: in vivo, Amaranthus retroflexus; conditions: for Redroot pigweed plant response rating: scale of 0 to 10 where 0 is no effect and 10 is complete control
Outline: as §1

soybean = assay: Test B pre/postemergence soybean; assay type: in vivo, Glycine max; conditions: for Soybean plant response rating: scale of 0 to 10 where 0 is no effect and 10 is complete control
Outline: as §1

velvetleaf = assay: Test B pre/postemergence velvetleaf; assay type: in vivo, Abutilon theophrasti; conditions: for Velvetleaf plant response rating: scale of 0 to 10 where 0 is no effect and 10 is complete control
Outline: as §1

wheat = assay: Test B pre/postemergence wheat; assay type: in vivo, Triticum aestivum; conditions: for Wheat plant response rating: scale of 0 to 10 where 0 is no effect and 10 is complete control
Outline: as §1

wild oat = assay: Test B pre/postemergence wild oat; assay type: in vivo, Avena fatua; conditions: for Wild oats plant response rating: scale of 0 to 10 where 0 is no effect and 10 is complete control
Outline: as §1

rice = assay: Test B flood test rice; assay type: in vivo, Oryza sativa
Outline: (§2)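 Read-out is a visual response score from 0 (no effect) to 10 (complete control), assigned by comparison with untreated controls. Treatment was applied at the 2-leaf stage, and plants stayed in the greenhouse for twelve to sixteen days before scoring.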

smallflower flatsedge = assay: Test B flood test smallflower flatsedge; assay type: in vivo, Cyperus difformis
Outline: as §2

bamyardgrass = assay: Test B flood test barnyardgrass; assay type: in vivo, Echinochloa crus-galli
Outline: as §2

[1] = Postemergence, Rate 125 g/ha, scale 0 to 10, 0 is no effect, 10 is complete control
[2] = Postemergence, Rate 250 g/ha, scale 0 to 10, 0 is no effect, 10 is complete control
[3] = Preemergence, Rate 62 g/ha, scale 0 to 10 (0 no effect, 10 complete control)
[4] = Rate 500 g/ha, Postemergence, scale 0 to 10, 0 no effect, 10 complete control
[5] = Rate 62 g/ha, flood test species, Pre-emergence, visual evaluation after twelve to sixteen days
[6] = Rate 125 g/ha, under heading Pre-emergence, flood test species, visual evaluation after twelve to sixteen days
[7] = Rate 250 g/ha, Pre-emergence, flood-test species, scale 0 to 10, 0 is no effect, 10 is complete control
[8] = Rate 500 g/ha, Pre-emergence, flood test species, scale 0 to 10 (0 no effect, 10 complete control)

Structure (SMILES): CC(C)N(C(=O)n1oc(=O)n(N2C(C)CCCC2C)c1=O)c1ccc(F)cc1 (stereo not shown) [Compound 382]
- Plant response rating, Bedstraw (bedstraw; Rate 250 g/ha, scale 0 to 10, 0 is no effect, 10 is complete control): 4
- Plant response rating, Bedstraw (bedstraw; Rate 500 g/ha, scale 0 to 10, 0 no effect, 10 complete control): 4
- Plant response rating, Blackgrass (blackgrass; [1]): 0
- Plant response rating, Blackgrass (blackgrass; [2]): 2
- Plant response rating, Blackgrass (blackgrass; [3]): 0
- Blackgrass plant response rating (0 to 10 scale) (blackgrass; Preemergence, Rate 125 g/ha): 1
- Blackgrass plant response rating (blackgrass; Preemergence, Rate 250 g/ha): 3
- Blackgrass plant response rating (blackgrass; Preemergence, Rate 500 g/ha): 7
- Blackgrass plant response rating (blackgrass; Rate 62 g/ha, Postemergence): 0
- Plant response rating, Blackgrass (blackgrass; [4]): 2
- Plant response rating, B. signalgrass (surinam grass; [1]): 0
- Plant response rating, B. signalgrass (surinam grass; [2]): 0
- Plant response rating, B. signalgrass (surinam grass; [3]): 0
- B. signalgrass plant response rating (0 to 10 scale, 0 is no effect, 10 is complete control) (surinam grass; Preemergence, Rate 125 g/ha): 0
- B. signalgrass plant response rating (surinam grass; Preemergence, Rate 250 g/ha): 2
- B. signalgrass plant response rating (surinam grass; Preemergence, Rate 500 g/ha): 6
- B. signalgrass plant response rating (surinam grass; Rate 62 g/ha, Postemergence): 0
- Plant response rating, B. signalgrass (surinam grass; [4]): 0
- Plant response rating, Cocklebur (cocklebur; [1]): 0
- Plant response rating, Cocklebur (cocklebur; [2]): 0
- Plant response rating, Cocklebur (cocklebur; [3]): 0
- Cocklebur plant response rating (0 to 10 scale) (cocklebur; Preemergence, Rate 125 g/ha): 0
- Cocklebur plant response rating (cocklebur; Preemergence, Rate 250 g/ha): 0
- Cocklebur plant response rating (cocklebur; Rate 62 g/ha, Postemergence): 0
- Plant response rating, Cocklebur (cocklebur; [4]): 0
- Plant response rating, Corn (corn; [1]): 0
- Plant response rating, Corn (corn; [2]): 0
- Plant response rating, Corn (corn; [3]): 0
- Corn plant response rating (0 to 10 scale) (corn; Preemergence, Rate 125 g/ha): 0
- Corn plant response rating (corn; Preemergence, Rate 250 g/ha): 0
- Corn plant response rating (corn; Preemergence, Rate 500 g/ha): 2
- Corn plant response rating (corn; Rate 62 g/ha, Postemergence): 0
- Plant response rating, Corn (corn; [4]): 0
- Plant response rating, Crabgrass (crabgrass; [1]): 0
- Plant response rating, Crabgrass (crabgrass; [2]): 0
- Plant response rating, Crabgrass (crabgrass; [3]): 6
- Crabgrass plant response rating (0 to 10 scale) (crabgrass; Preemergence, Rate 125 g/ha): 7
- Crabgrass plant response rating (crabgrass; Preemergence, Rate 250 g/ha): 9
- Crabgrass plant response rating (crabgrass; Preemergence, Rate 500 g/ha): 10
- Crabgrass plant response rating (crabgrass; Rate 62 g/ha, Postemergence): 0
- Plant response rating, Crabgrass (crabgrass; [4]): 1
- Plant response rating, Giant foxtail (giant foxtail; [1]): 3
- Plant response rating, Giant foxtail (giant foxtail; [2]): 3
- Plant response rating, Giant foxtail (giant foxtail; [3]): 9
- Giant foxtail plant response rating (0 to 10 scale) (giant foxtail; Preemergence, Rate 125 g/ha): 9
- Giant foxtail plant response rating (giant foxtail; Preemergence, Rate 250 g/ha): 9
- Giant foxtail plant response rating (giant foxtail; Preemergence, Rate 500 g/ha): 10
- Giant foxtail plant response rating (giant foxtail; Rate 62 g/ha, Postemergence): 0
- Plant response rating, Giant foxtail (giant foxtail; [4]): 4
- Plant response rating, Morningglory (morningglory; [1]): 0
- Plant response rating, Morningglory (morningglory; [2]): 0
- Plant response rating, Morningglory (morningglory; [3]): 0
- Morningglory plant response rating (0 to 10 scale) (morningglory; Preemergence, Rate 125 g/ha): 0
- Morningglory plant response rating (morningglory; Preemergence, Rate 250 g/ha): 0
- Morningglory plant response rating (morningglory; Preemergence, Rate 500 g/ha): 0
- Morningglory plant response rating (morningglory; Rate 62 g/ha, Postemergence): 0
- Plant response rating, Morningglory (morningglory; [4]): 0
- Plant response rating, Redroot pigweed (pigweed; [1]): 0
- Plant response rating, Redroot pigweed (pigweed; [2]): 0
- Plant response rating, Redroot pigweed (pigweed; [3]): 0
- Redroot pigweed plant response rating (0 to 10 scale) (pigweed; Preemergence, Rate 125 g/ha): 0
- Redroot pigweed plant response rating (pigweed; Preemergence, Rate 250 g/ha): 0
- Redroot pigweed plant response rating (pigweed; Preemergence, Rate 500 g/ha): 0
- Redroot pigweed plant response rating (pigweed; Rate 62 g/ha, Postemergence): 0
- Plant response rating, Redroot pigweed (pigweed; [4]): 0
- Plant response rating, Soybean (soybean; [1]): 3
- Plant response rating, Soybean (soybean; [2]): 4
- Plant response rating, Soybean (soybean; [3]): 0
- Soybean plant response rating (0 to 10 scale) (soybean; Preemergence, Rate 125 g/ha): 0
- Soybean plant response rating (soybean; Preemergence, Rate 250 g/ha): 0
- Soybean plant response rating (soybean; Preemergence, Rate 500 g/ha): 0
- Soybean plant response rating (soybean; Rate 62 g/ha, Postemergence): 1
- Plant response rating, Soybean (soybean; [4]): 5
- Plant response rating, Velvetleaf (velvetleaf; [1]): 0
- Plant response rating, Velvetleaf (velvetleaf; [2]): 0
- Plant response rating, Velvetleaf (velvetleaf; [3]): 0
- Velvetleaf plant response rating (0 to 10 scale) (velvetleaf; Preemergence, Rate 125 g/ha): 0
- Velvetleaf plant response rating (velvetleaf; Preemergence, Rate 250 g/ha): 0
- Velvetleaf plant response rating (velvetleaf; Preemergence, Rate 500 g/ha): 0
- Velvetleaf plant response rating (velvetleaf; Rate 62 g/ha, Postemergence): 0
- Plant response rating, Velvetleaf (velvetleaf; [4]): 0
- Plant response rating, Wheat (wheat; [1]): 0
- Plant response rating, Wheat (wheat; [2]): 0
- Plant response rating, Wheat (wheat; [3]): 0
- Wheat plant response rating (0 to 10 scale) (wheat; Preemergence, Rate 125 g/ha): 0
- Wheat plant response rating (wheat; Preemergence, Rate 250 g/ha): 0
- Wheat plant response rating (wheat; Preemergence, Rate 500 g/ha): 0
- Wheat plant response rating (wheat; Rate 62 g/ha, Postemergence): 0
- Plant response rating, Wheat (wheat; [4]): 0
- Plant response rating, Wild oats (wild oat; [1]): 0
- Plant response rating, Wild oats (wild oat; [2]): 0
- Plant response rating, Wild oats (wild oat; [3]): 0
- Wild oats plant response rating (0 to 10 scale) (wild oat; Preemergence, Rate 125 g/ha): 0
- Wild oats plant response rating (wild oat; Preemergence, Rate 250 g/ha): 0
- Wild oats plant response rating (wild oat; Preemergence, Rate 500 g/ha): 4
- Wild oats plant response rating (wild oat; Rate 62 g/ha, Postemergence): 0
- Plant response rating, Wild oats (wild oat; [4]): 0
- Plant response rating, Rice (0 to 10 scale, 0 is no effect, 10 is complete control) (rice; [5]): 0
- Rice plant response rating (0 to 10 scale, 0 is no effect, 10 is complete control) (rice; [6]): 0
- Rice plant response rating (rice; [7]): 0
- Rice plant response rating (rice; [8]): 0
- Plant response rating, S. Flatsedge (0 to 10 scale, 0 is no effect, 10 is complete control) (smallflower flatsedge; [5]): 0
- S. Flatsedge plant response rating (0 to 10 scale, 0 is no effect, 10 is complete control) (smallflower flatsedge; [6]): 0
- S. Flatsedge plant response rating (smallflower flatsedge; [7]): 0
- S. Flatsedge plant response rating (smallflower flatsedge; [8]): 0
- Plant response rating, Barnyardgrass (0 to 10 scale, 0 is no effect, 10 is complete control) (bamyardgrass; [5]): 0
- Barnyardgrass plant response rating (0 to 10 scale, 0 is no effect, 10 is complete control) (bamyardgrass; [6]): 0
- Barnyardgrass plant response rating (bamyardgrass; [7]): 0
- Barnyardgrass plant response rating (bamyardgrass; [8]): 0
